Source: ChEMBL document CHEMBL1154955, “Discovery of potent and selective bicyclic A(2B) adenosine receptor antagonists via bioisosteric amide replacement” (Bioorg Med Chem Lett, 2010)
In brackets after ≈: the same amount, converted by molar mass.

Key:
Adenosine receptor A1 = molecular target: T1, Adenosine receptor A1 (Homo sapiens, UniProt P30542); assay: Displacement of [3H]DPCPX from human adenosine A1 receptor expressed in CHO cells after 90 mins by filtration binding assay; type: cell-based
T1 sequence (P30542 whole entry): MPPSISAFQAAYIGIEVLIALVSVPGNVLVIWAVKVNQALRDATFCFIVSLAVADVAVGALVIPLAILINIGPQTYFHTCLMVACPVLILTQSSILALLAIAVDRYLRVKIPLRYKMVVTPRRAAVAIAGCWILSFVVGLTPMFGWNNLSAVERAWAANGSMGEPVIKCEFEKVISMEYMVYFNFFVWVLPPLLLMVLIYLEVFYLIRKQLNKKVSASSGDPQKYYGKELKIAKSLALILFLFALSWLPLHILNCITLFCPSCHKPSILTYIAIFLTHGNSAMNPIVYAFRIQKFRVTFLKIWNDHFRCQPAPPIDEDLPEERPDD

[1] = Apparent permeability across human Caco-2 cells at 12.5 uM; type: ADME, cell-based; details: read-out: permeability
[2] = molecular target: T2, Adenosine receptor A3 (Homo sapiens) (UniProt P0DMS8); assay: Inhibition of [3H]NECA binding to human adenosine A3 receptor expressed in human HeLa cells at 1 uM after 3 hrs by filtration binding assay; type: cell-based
T2 sequence (whole entry): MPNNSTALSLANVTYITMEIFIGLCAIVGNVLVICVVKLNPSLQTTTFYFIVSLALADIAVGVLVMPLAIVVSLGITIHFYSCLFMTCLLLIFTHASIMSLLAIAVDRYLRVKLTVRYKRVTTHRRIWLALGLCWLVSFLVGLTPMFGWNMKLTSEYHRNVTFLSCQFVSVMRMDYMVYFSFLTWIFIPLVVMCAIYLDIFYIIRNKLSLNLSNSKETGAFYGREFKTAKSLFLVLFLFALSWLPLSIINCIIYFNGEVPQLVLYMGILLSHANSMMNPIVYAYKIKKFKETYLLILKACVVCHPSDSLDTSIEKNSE

Adenosine receptor A2b = molecular target: T3, Adenosine receptor A2b (Homo sapiens, UniProt P29275); assay: Displacement of [3H]DPCPX from human adenosine A2B receptor expressed in HEK293 cells after 60 mins by filtration binding assay; type: cell-based
T3 sequence (P29275 whole entry): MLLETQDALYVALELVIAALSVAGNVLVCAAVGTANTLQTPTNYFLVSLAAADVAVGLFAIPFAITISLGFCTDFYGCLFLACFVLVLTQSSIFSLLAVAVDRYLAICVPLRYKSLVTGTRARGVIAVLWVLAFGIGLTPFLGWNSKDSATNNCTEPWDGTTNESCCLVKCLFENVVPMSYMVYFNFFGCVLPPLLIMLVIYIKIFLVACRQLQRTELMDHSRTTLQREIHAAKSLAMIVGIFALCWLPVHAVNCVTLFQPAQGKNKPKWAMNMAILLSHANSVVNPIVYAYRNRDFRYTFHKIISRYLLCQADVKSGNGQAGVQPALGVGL

[3] = AUC (0 to infinity) in rat at 1 mg/kg, iv; type: ADME, organism-based; design: time infinity, dose 1 mg/kg, route intravenous; details: plasma
[4] = Clearance in rat at 1 mg/kg, iv; type: ADME, organism-based; design: dose 1 mg/kg, route intravenous; details: in vivo
[5] = Cmax in rat at 1 mg/kg, iv; type: ADME, organism-based; design: dose 1 mg/kg, route intravenous; details: in vivo
[6] = Thermodynamic solubility at pH 7.4; type: physicochemical; details: buffer
[7] = Metabolic stability in rat liver microsomes assessed as turnover at 5 uM after 30 mins in absence of NADPH; type: ADME, Microsome; details: read-out: Stability
[8] = Volume of distribution at steady state in rat at 1 mg/kg, iv; type: ADME, organism-based; design: dose 1 mg/kg, route intravenous; details: in vivo, read-out: Vdss
Adenosine receptor A2a = Adenosine receptor A2a (Homo sapiens, UniProt P29274); assay: Displacement of [3H]ZM241385 from human adenosine A2A receptor expressed in human HeLa cells after 1 hr by scintillation proximity assay; type: cell-based
[9] = Terminal half life in rat at 1 mg/kg, iv; type: ADME, organism-based; design: dose 1 mg/kg, route intravenous; details: in vivo
Adenosine receptor A3 = molecular target: T4, Adenosine receptor A3 (Homo sapiens, UniProt P0DMS8); assay: Displacement of [3H]NECA from human adenosine A3 receptor expressed in human HeLa cells after 3 hrs by filtration binding assay; type: cell-based
T4 sequence (P0DMS8 whole entry): T2 sequence (whole entry)

[10] = Oral bioavailability in rat at 10 mg/kg; type: ADME, organism-based; details: in vivo

Adenosine receptor A2a, sequence (P29274 whole entry): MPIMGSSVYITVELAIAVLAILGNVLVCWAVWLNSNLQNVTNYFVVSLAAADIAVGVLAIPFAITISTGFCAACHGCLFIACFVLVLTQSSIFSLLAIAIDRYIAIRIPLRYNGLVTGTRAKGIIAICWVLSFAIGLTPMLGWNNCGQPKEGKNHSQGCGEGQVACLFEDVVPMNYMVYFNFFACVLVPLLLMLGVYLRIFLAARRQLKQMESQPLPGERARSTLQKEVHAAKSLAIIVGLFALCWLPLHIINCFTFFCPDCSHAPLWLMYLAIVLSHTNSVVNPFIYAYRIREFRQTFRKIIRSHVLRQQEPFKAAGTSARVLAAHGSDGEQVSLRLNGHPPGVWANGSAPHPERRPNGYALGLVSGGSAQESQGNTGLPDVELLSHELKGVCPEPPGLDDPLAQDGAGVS

**Q.** With `Nc1n[nH]c2nc(-c3ccco3)c(-c3ccncn3)cc12` as the compound, how does the Ki (Adenosine receptor A1) read?
**A.** 357 nM

**Q.** And the Papp at 12.5 µM [1]?
**A.** 24 ×10⁻⁶ cm/s

**Q.** And the inhibition [2]?
**A.** 15%

**Q.** What about the Ki (Adenosine receptor A2b) of the same compound?
**A.** 8 nM

**Q.** What about the AUC(0-inf) [3] of the same compound?
**A.** 164 ng·h/mL

**Q.** What about the clearance [4] of the same compound?
**A.** 102 mL/min/kg

**Q.** And the Cmax [5]?
**A.** 397 ng/mL

**Q.** And the solubility thermodynamic [6]?
**A.** 204 µg/mL (≈ 733 µM)

**Q.** What about the metabolised at 0.5 h, 5 µM [7] of the same compound?
**A.** 6%

**Q.** What about the Vd [8] of the same compound?
**A.** 3.7 L/kg

**Q.** And the Ki (Adenosine receptor A2a)?
**A.** 858 nM

**Q.** And the half-life [9]?
**A.** 24 min

**Q.** Which results are given for `c1coc(-c2nc3[nH]ccc3cc2-c2ccncn2)c1`?
**A.** Ki (Adenosine receptor A1): 252 nM; Papp at 12.5 µM [1]: 40 ×10⁻⁶ cm/s; inhibition [2]: 7%; Ki (Adenosine receptor A2b): 13 nM; metabolised at 0.5 h, 5 µM [7]: 88%; Ki (Adenosine receptor A2a): 619 nM

**Q.** Which Ki (Adenosine receptor A1) does the source give for `c1coc(-c2nc3[nH]cnc3cc2-c2ccncn2)c1` here?
**A.** 717 nM

**Q.** What about the Papp at 12.5 µM [1] of the same compound?
**A.** 23 ×10⁻⁶ cm/s

**Q.** What about the inhibition [2] of the same compound?
**A.** 0%

**Q.** What about the Ki (Adenosine receptor A2b) of the same compound?
**A.** 21 nM

**Q.** And the metabolised at 0.5 h, 5 µM [7]?
**A.** 10%

**Q.** What about the Ki (Adenosine receptor A2a) of the same compound?
**A.** 3600 nM

**Q.** Which Ki (Adenosine receptor A1) does the source give for `c1coc(-c2nc3[nH]ncc3cc2-c2ccncn2)c1` here?
**A.** 478 nM

**Q.** What about the Papp at 12.5 µM [1] of the same compound?
**A.** 39 ×10⁻⁶ cm/s

**Q.** What about the inhibition [2] of the same compound?
**A.** 2%

**Q.** And the Ki (Adenosine receptor A2b)?
**A.** 23 nM

**Q.** What about the AUC(0-inf) [3] of the same compound?
**A.** 736 ng·h/mL

**Q.** And the clearance [4]?
**A.** 23.3 mL/min/kg

**Q.** And the Cmax [5]?
**A.** 1050 ng/mL

**Q.** And the solubility thermodynamic [6]?
**A.** 296 µg/mL (≈ 1120 µM)

**Q.** And the metabolised at 0.5 h, 5 µM [7]?
**A.** 17%

**Q.** What about the Vd [8] of the same compound?
**A.** 0.8 L/kg

**Q.** And the Ki (Adenosine receptor A2a)?
**A.** 1660 nM

**Q.** What about the half-life [9] of the same compound?
**A.** 36 min

**Q.** For `O=c1[nH]c(=O)c2cc(-c3ccncn3)c(-c3ccco3)nc2[nH]1`, which Ki (Adenosine receptor A1) is on record?
**A.** 1730 nM

**Q.** And the Papp at 12.5 µM [1]?
**A.** 20 ×10⁻⁶ cm/s

**Q.** What about the Ki (Adenosine receptor A2b) of the same compound?
**A.** 1 nM

**Q.** What about the AUC(0-inf) [3] of the same compound?
**A.** 880 ng·h/mL

**Q.** What about the clearance [4] of the same compound?
**A.** 20 mL/min/kg

**Q.** What about the Cmax [5] of the same compound?
**A.** 1680 ng/mL

**Q.** And the solubility thermodynamic [6]?
**A.** 61 µg/mL (≈ 199 µM)

**Q.** And the metabolised at 0.5 h, 5 µM [7]?
**A.** 0%

**Q.** What about the Vd [8] of the same compound?
**A.** 0.75 L/kg

**Q.** And the Ki (Adenosine receptor A3)?
**A.** 6.27 µM

**Q.** And the Ki (Adenosine receptor A2a)?
**A.** 181 nM

**Q.** What about the half-life [9] of the same compound?
**A.** 24 min

**Q.** Which Papp at 12.5 µM [1] does the source give for `O=C(Nc1ccc(-c2ccncn2)c(-c2ccco2)n1)C1CC1` here?
**A.** 45 ×10⁻⁶ cm/s

**Q.** Which Ki (Adenosine receptor A1) does the source give for `O=c1[nH]c2cc(-c3ccncn3)c(-c3ccco3)nc2[nH]1` here?
**A.** 317 nM

**Q.** What about the Papp at 12.5 µM [1] of the same compound?
**A.** 40 ×10⁻⁶ cm/s

**Q.** What about the inhibition [2] of the same compound?
**A.** 18%

**Q.** What about the bioavailability [10] of the same compound?
**A.** 20%

**Q.** What about the Ki (Adenosine receptor A2b) of the same compound?
**A.** 6 nM

**Q.** And the AUC(0-inf) [3]?
**A.** 350 ng·h/mL

**Q.** What about the clearance [4] of the same compound?
**A.** 50 mL/min/kg

**Q.** And the Cmax [5]?
**A.** 762 ng/mL

**Q.** And the solubility thermodynamic [6]?
**A.** 48 µg/mL (≈ 172 µM)

**Q.** And the metabolised at 0.5 h, 5 µM [7]?
**A.** 15%

**Q.** And the Vd [8]?
**A.** 1 L/kg

**Q.** And the Ki (Adenosine receptor A2a)?
**A.** 769 nM

**Q.** What about the half-life [9] of the same compound?
**A.** 60 min

**Q.** For `O=c1[nH][nH]c2nc(-c3ccco3)c(-c3ccncn3)cc12`, which Ki (Adenosine receptor A1) is on record?
**A.** 82 nM

**Q.** What about the Papp at 12.5 µM [1] of the same compound?
**A.** 3.5 ×10⁻⁶ cm/s

**Q.** What about the inhibition [2] of the same compound?
**A.** 2%

**Q.** And the Ki (Adenosine receptor A2b)?
**A.** 3 nM

**Q.** What about the AUC(0-inf) [3] of the same compound?
**A.** 504 ng·h/mL

**Q.** What about the clearance [4] of the same compound?
**A.** 33.3 mL/min/kg

**Q.** What about the Cmax [5] of the same compound?
**A.** 1330 ng/mL

**Q.** What about the metabolised at 0.5 h, 5 µM [7] of the same compound?
**A.** 7%

**Q.** And the Vd [8]?
**A.** 0.6 L/kg

**Q.** What about the Ki (Adenosine receptor A2a) of the same compound?
**A.** 177 nM

**Q.** What about the half-life [9] of the same compound?
**A.** 24 min

**Q.** With `Cn1c(=O)[nH]c2nc(-c3ccco3)c(-c3ccncn3)cc21` as the compound, how does the Ki (Adenosine receptor A1) read?
**A.** 2440 nM

**Q.** What about the Papp at 12.5 µM [1] of the same compound?
**A.** 32 ×10⁻⁶ cm/s

**Q.** And the inhibition [2]?
**A.** 17%

**Q.** What about the Ki (Adenosine receptor A2b) of the same compound?
**A.** 11 nM

**Q.** What about the metabolised at 0.5 h, 5 µM [7] of the same compound?
**A.** 8%

**Q.** And the Ki (Adenosine receptor A2a)?
**A.** 2130 nM
